Experimental data from patent US20120029187A1, “HALOALKYLSULFONANILIDE DERIVATIVE” (Nissan Chemical Industries, Ltd., priority 2009, published 2012).

Columns and labels:
Format in all cases: in vivo
[1] = system: barnyardgrass; test: Test Example 2: herbicidal effects during the vegetation period under submerged conditions; details: treatment during the vegetation period under submerged conditions; dose 2.52 g/a
Outline: (§1)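 Barnyardgrass, bulrush and ducksalad were co-sown in alluvial soil flooded to 4 cm and grown in a greenhouse at 25 to 30° C. At the 1- or 2-leaf stage, water-diluted emulsifiable concentrates went onto the water surface at set doses (g/a). Herbicidal effect was scored three weeks later on a graded scale.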

[2] = system: ducksalad; test: as above; details: treatment during the vegetation period under submerged conditions; dose 2.52 g/a
Outline: as §1

[3] = system: bulrush; test: as above; details: treatment during the vegetation period under submerged conditions; dose 2.52 g/a
Outline: as §1

[4] = system: barnyardgrass; test: Test Example 1: herbicidal effects in preemergence treatment under submerged conditions; details: dose 2.52 g/a
Outline: (§2)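 Scoring 0 (<5% mortality) to 5 (≥90%) was done three weeks after preemergence application to the water surface of submerged (4 cm) alluvial soil, doses given as g per are. Weeds were seeded and 2.5-leaf rice transplanted on the treatment day; greenhouse at 25–30 °C.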

[5] = system: ducksalad; test: as above; details: dose 2.52 g/a
Outline: as §2

[6] = system: bulrush; test: as above; details: dose 2.52 g/a
Outline: as §2

[7] = system: Italian ryegrass; test: Test Example 4: herbicidal effect in foliage treatment; details: dose 3.2 g/a, three weeks after application
Outline: (§3)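 Doses are given in grams per are of applied compound, sprayed as water-diluted emulsifiable concentrate onto foliage of 14-day-old plants grown at 25 to 30° C. Herbicidal activity was assessed visually on a rating scale after three weeks.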

[8] = system: beadstraw; test: as above; details: dose 3.2 g/a, three weeks after application
Outline: as §3

[9] = system: barnyardgrass; test: as above; details: dose 3.2 g/a, three weeks after application
Outline: as §3

[10] = system: common lambsquater; test: as above; details: dose 3.2 g/a, three weeks after application
Outline: as §3

[11] = system: redroot pigweed; test: as above; details: dose 3.2 g/a, three weeks after application
Outline: as §3

[12] = system: water foxtail; test: as above; details: dose 3.2 g/a, three weeks after application
Outline: as §3

[13] = system: velvetleaf; test: as above; details: dose 3.2 g/a, three weeks after application
Outline: as §3

[14] = system: giant foxtail; test: as above; details: dose 3.2 g/a, three weeks after application
Outline: as §3

[15] = system: posumbu knotweed; test: as above; details: dose 3.2 g/a, three weeks after application
Outline: as §3

[16] = system: common ragweed; test: as above; details: dose 3.2 g/a, three weeks after application
Outline: as §3

[17] = system: common chickweed; test: as above; details: dose 3.2 g/a, three weeks after application
Outline: as §3

[18] = system: large crabgrass; test: as above; details: dose 3.2 g/a, three weeks after application
Outline: as §3

[19] = system: transplanted rice; test: Test Example 1: preemergence treatment under submerged conditions, effect on crop; details: dose 2.52 g/a
Outline: as §2

[20] = system: Italian ryegrass; test: Test Example 3: herbicidal effects in soil treatment; details: dose 3.2 g/a
Outline: (§4)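 Seeds were sown in sterilized diluvial soil and covered with about 1.5 cm of soil. Compounds, formulated as emulsifiable concentrates and diluted with water, were sprayed evenly over the soil surface at set doses in g/a. Herbicidal effect was scored on a rating scale three weeks later.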

[21] = system: barnyardgrass; test: as above; details: dose 3.2 g/a
Outline: as §4

[22] = system: common lambsquater; test: as above; details: dose 3.2 g/a
Outline: as §4

[23] = system: redroot pigweed; test: as above; details: dose 3.2 g/a
Outline: as §4

[24] = system: water foxtail; test: as above; details: dose 3.2 g/a
Outline: as §4

[25] = system: velvetleaf; test: as above; details: dose 3.2 g/a
Outline: as §4

[26] = system: giant foxtail; test: as above; details: dose 3.2 g/a
Outline: as §4

[27] = system: posumbu knotweed; test: as above; details: dose 3.2 g/a
Outline: as §4

[28] = system: common ragweed; test: as above; details: dose 3.2 g/a
Outline: as §4

[29] = system: common chickweed; test: as above; details: dose 3.2 g/a
Outline: as §4

[30] = system: large crabgrass; test: as above; details: dose 3.2 g/a
Outline: as §4

| Compound | A: barnyardgrass, herbicidal effect (evaluation scale 0-5) [1] | C: ducksalad, herbicidal effect (evaluation scale 0-5) [2] | B: bulrush, herbicidal effect (evaluation scale 0-5) [3] | A: barnyardgrass, herbicidal effect (evaluation scale 0-5) [4] | C: ducksalad, herbicidal effect (evaluation scale 0-5) [5] | B: bulrush, herbicidal effect (evaluation scale 0-5) [6] | H: Italian ryegrass, herbicidal effect [7] | O: beadstraw, herbicidal effect [8] | A: barnyardgrass, herbicidal effect [9] | L: common lambsquater, herbicidal effect [10] | K: redroot pigweed, herbicidal effect [11] | G: water foxtail, herbicidal effect [12] | I: velvetleaf, herbicidal effect [13] | E: giant foxtail, herbicidal effect [14] | M: posumbu knotweed, herbicidal effect [15] | J: common ragweed, herbicidal effect [16] | N: common chickweed, herbicidal effect [17] | D: large crabgrass, herbicidal effect [18] | a: transplanted rice, effect on crop (evaluation scale 0-5) [19] | H: Italian ryegrass, herbicidal effect (evaluation scale 0-5) [20] | also measured |
| --- | --- | --- | --- | --- | --- | --- | --- | --- | --- | --- | --- | --- | --- | --- | --- | --- | --- | --- | --- | --- | --- |
| CCC1(C)CC(=O)N(Cc2ccccc2N(C(=O)OCC(C)C)S(=O)(=O)C(F)(F)F)CO1 (stereo not drawn) [II-43] | 5 (mortality of 90% or above (nearly complete death)) | 5 (mortality of 90% or above (nearly complete death)) | 5 (mortality of 90% or above (nearly complete death)) | 5 (mortality of 90% or above (nearly complete death)) | 5 (mortality of 90% or above (nearly complete death)) | 5 (mortality of 90% or above (nearly complete death)) | 4 (mortality of at least 70% and less than 90%) | 4 (mortality of at least 70% and less than 90%) | 5 (mortality of 90% or above (nearly complete death)) | 2 (mortality of at least 20% and less than 40%) | 0 (mortality of less than 5% (almost ineffective)) | 5 (mortality of 90% or above (nearly complete death)) | 5 (mortality of 90% or above (nearly complete death)) | 4 (mortality of at least 70% and less than 90%) | 0 (mortality of less than 5% (almost ineffective)) | 3 (mortality of at least 40% and less than 70%) | 3 (mortality of at least 40% and less than 70%) | 1 (mortality of at least 5% and less than 20%) | 0 (mortality of less than 5% (almost ineffective)) | 5 (mortality of 90% or above (nearly complete death)) | A: barnyardgrass, herbicidal effect (evaluation scale 0-5) [21]: 4 (mortality of at least 70% and less than 90%); L: common lambsquater, herbicidal effect (evaluation scale 0-5) [22]: 5 (mortality of 90% or above (nearly complete death)); K: redroot pigweed, herbicidal effect (evaluation scale 0-5) [23]: 2 (mortality of at least 20% and less than 40%); G: water foxtail, herbicidal effect (evaluation scale 0-5) [24]: 5 (mortality of 90% or above (nearly complete death)); I: velvetleaf, herbicidal effect (evaluation scale 0-5) [25]: 5 (mortality of 90% or above (nearly complete death)); E: giant foxtail, herbicidal effect (evaluation scale 0-5) [26]: 2 (mortality of at least 20% and less than 40%); M: posumbu knotweed, herbicidal effect (evaluation scale 0-5) [27]: 4 (mortality of at least 70% and less than 90%); J: common ragweed, herbicidal effect (evaluation scale 0-5) [28]: 3 (mortality of at least 40% and less than 70%); N: common chickweed, herbicidal effect (evaluation scale 0-5) [29]: 5 (mortality of 90% or above (nearly complete death)); D: large crabgrass, herbicidal effect (evaluation scale 0-5) [30]: 3 (mortality of at least 40% and less than 70%) |
| CC1(C(F)(F)F)CC(=O)N(Cc2ccccc2NS(=O)(=O)C(F)(F)F)CO1 (stereo not drawn) [II-46] | 4 (mortality of at least 70% and less than 90%) | 5 (mortality of 90% or above (nearly complete death)) | 5 (mortality of 90% or above (nearly complete death)) | 4 (mortality of at least 70% and less than 90%) | 5 (mortality of 90% or above (nearly complete death)) | 5 (mortality of 90% or above (nearly complete death)) | 0 (mortality of less than 5% (almost ineffective)) | 4 (mortality of at least 70% and less than 90%) | 4 (mortality of at least 70% and less than 90%) | 2 (mortality of at least 20% and less than 40%) | 0 (mortality of less than 5% (almost ineffective)) | 2 (mortality of at least 20% and less than 40%) | 1 (mortality of at least 5% and less than 20%) | 4 (mortality of at least 70% and less than 90%) | 2 (mortality of at least 20% and less than 40%) | 3 (mortality of at least 40% and less than 70%) | 4 (mortality of at least 70% and less than 90%) | 4 (mortality of at least 70% and less than 90%) | 0 (mortality of less than 5% (almost ineffective)) | 3 (mortality of at least 40% and less than 70%) | A: barnyardgrass, herbicidal effect (evaluation scale 0-5) [21]: 5 (mortality of 90% or above (nearly complete death)); L: common lambsquater, herbicidal effect (evaluation scale 0-5) [22]: 4 (mortality of at least 70% and less than 90%); K: redroot pigweed, herbicidal effect (evaluation scale 0-5) [23]: 0 (mortality of less than 5% (almost ineffective)); G: water foxtail, herbicidal effect (evaluation scale 0-5) [24]: 5 (mortality of 90% or above (nearly complete death)); I: velvetleaf, herbicidal effect (evaluation scale 0-5) [25]: 3 (mortality of at least 40% and less than 70%); E: giant foxtail, herbicidal effect (evaluation scale 0-5) [26]: 5 (mortality of 90% or above (nearly complete death)); M: posumbu knotweed, herbicidal effect (evaluation scale 0-5) [27]: 3 (mortality of at least 40% and less than 70%); J: common ragweed, herbicidal effect (evaluation scale 0-5) [28]: 4 (mortality of at least 70% and less than 90%); N: common chickweed, herbicidal effect (evaluation scale 0-5) [29]: 4 (mortality of at least 70% and less than 90%); D: large crabgrass, herbicidal effect (evaluation scale 0-5) [30]: 5 (mortality of 90% or above (nearly complete death)) |
